The values below come from PubChem BioAssay AID489010 (Southern Research Specialized Biocontainment Screening …, 2010).

Test [1] deals with M. tuberculosis H37Rv growth inhibition. Put plainly: M. tuberculosis H37Rv growth inhibition, dose response, strain H37Rv (AID 489010). The conditions noted are these: for IC50: measured here: H37Rv growth IC50.
Assay in test [2]: as above
The conditions noted are these: M. tuberculosis H37Rv growth inhibition; at 100 µM (top of the series).

Activity calls are given as the source filed them. No rule for the calls is given here.

`O=C(OCn1ncc(Cl)c(Cl)c1=O)c1cccc(C(F)(F)F)c1` yielded a concentration for half-maximal inhibition (IC50) in test [1] of 44.9 µM.

`CC(C)c1nnc(NC(=O)c2nc(S(=O)(=O)Cc3ccc(F)cc3)ncc2Cl)s1`: the IC50 in test [1] was 53.8 µM.

In test [1], `O=C(NC1CCCCC1)C(c1cccnc1)N(C(=O)CCl)c1cccc(Cl)c1` (configuration not stated) displayed an IC50 of 15.5 µM.

Turning to `Cc1ccc(C2C(C#N)=C(N)Oc3n[nH]c(-c4cccs4)c32)cc1` (configuration not stated), the growth inhibition in test [2] is 3.65% (inactive).

`Cc1cc(C)c(S(=O)(=O)/N=C2\C=C(Nc3ccc(C(=O)O)cc3)C(=O)c3ccccc32)c(C)c1` registered a concentration for half-maximal inhibition (IC50) in test [1] of more than 100 µM.

`C=CCOc1ccccc1CN(C(=O)CCl)c1ccc2c(c1)OCO2` showed a half-maximal inhibitory concentration (IC50) in test [1] of 1.64 µM.

As to `CCn1nc(/C=C/c2ccccc2)nc2c(=O)n(C)c(=O)nc1-2`, the IC50 in test [1] turned out to be 6.39 µM.

For `CCCCc1ccc(NC(=O)CSCc2cc(=O)[nH][nH]2)cc1`, in test [2], the growth inhibition was -4.95% (inactive).

Turning to `C/C(=N\NC(=O)Cc1cc(=O)[nH][nH]1)c1cccc([N+](=O)[O-])c1`, the growth inhibition in test [2] is 2.86% (inactive).

In the case of `CC(=O)Nc1cc(OC(=O)c2ccco2)cc(OC(=O)c2ccco2)c1`, the growth inhibition in test [2] is 1.93% (inactive).

In turn, `CC1=NNC(=O)C1Cc1c(Cl)cccc1Cl` (configuration not stated) gave an IC50 in test [1] of 46.2 µM.

Take `O=C(Cc1cc(=O)[nH][nH]1)N/N=C/C=C/c1ccccc1`: in test [2], the growth inhibition was -3.45% (inactive).

On to `CCOc1ccccc1C1C(C#N)=C(N)Nc2onc(-c3ccccc3)c21` (configuration not stated), for which the growth inhibition in test [2] was -3.07% (inactive).

As to `COc1ccc(C(=O)c2c(C(F)(F)F)oc3c2C(=O)c2ccccc2C3=O)cc1OC`, the IC50 in test [1] worked out at 9.48 µM.

Compound `COc1cc2c(cc1OC)-c1c(OC)c(OC)cc3c1C(C2)N(C)CC3` (configuration not stated) returned an IC50 in test [1] of 25.8 µM.

Consider `N#CC(C#N)C(c1ccsc1)c1c(-c2ccccc2)[nH][nH]c1=O` (configuration not stated), for which the growth inhibition in test [2] is -3.85% (inactive).

In test [1], `CCC(C)[C@@H](NC(=O)OC(C)(C)C)c1nnc(S(=O)(=O)Cc2cccc(C)c2)o1` (some centres not stated) came in with an IC50 of 31.9 µM.

`O=C(OCn1ncc(Cl)c(Cl)c1=O)c1ccccc1Cl`: the IC50 in test [1] amounted to 22.1 µM.

Take `Cc1cc(-c2[nH]nc3c2C(c2ccc(Cl)cc2)C(C#N)=C(N)O3)c(C)s1` (configuration not stated): the growth inhibition in test [2] was 8.76% (inactive).

Turning to `COc1cc(NCCCCCCCN)c2ncccc2c1`, in test [1], the IC50 was 36.3 µM.

`CSCCC1C(C#N)=C(N)Oc2n[nH]c(-c3cccs3)c21` (configuration not stated): the growth inhibition in test [2] is 11.2% (inactive).

For `CSc1nnc(NC(=O)c2nc(S(=O)(=O)Cc3ccccc3F)ncc2Cl)s1`, the half-maximal inhibitory concentration (IC50) in test [1] is 41.3 µM.

On to `CC(=O)N(Cc1ccc(F)cc1)C1=C(NCCc2ccccc2)C(=O)c2ccccc2C1=O`, for which, in test [1], the 90% effect concentration (IC90) was 1.31 µM and the IC50 was 0.74 µM.

On to `CCOc1cc(C2C(C#N)=C(N)Oc3n[nH]c(-c4ccccc4)c32)ccc1O` (configuration not stated), for which, in test [2], the growth inhibition is 4.87% (inactive).

As to `CN(C1=C(NC(=O)c2ccc(Cl)cc2)C(=O)c2ccccc2C1=O)c1ccccc1`, the IC50 in test [1] came out at 9.43 µM.

For the compound `Cc1[nH]n(-c2ccccc2)c(=O)c1C(c1cccc([N+](=O)[O-])c1)c1c(C)[nH]n(-c2ccccc2)c1=O`, the IC50 in test [1] was more than 100 µM.

`C/C(=N/NC(=O)Cc1cc(=O)[nH][nH]1)c1ccc([N+](=O)[O-])cc1`: the growth inhibition in test [2] was -1.21% (inactive).

Compound `Cc1cc(C)cc(Cn2ncc(Cl)c(Cl)c2=O)c1` returned an IC50 in test [1] of 11.7 µM.

Consider `O=C(CCl)Nc1cn(-c2ccccc2)nc1-c1ccc(F)cc1`, for which the IC50 in test [1] is less than 0.2 µM.

In test [1], `Cc1cc(Br)c2c(c1)/C(=C/C(=O)c1cccs1)C(=O)N2` gave an IC50 of 11.7 µM.

On to `Fc1ccc(Nc2nc(Oc3ccccc3F)nc(N3CCCC3)n2)cc1`, for which the growth inhibition in test [2] is -4.07% (inactive).

`Cc1nn(-c2ccccc2)c(Cl)c1CN(C(=O)CCl)c1cccc2ccccc12` had an IC50 in test [1] of 21.7 µM.

Take `O=c1cc(-c2ccc(Cl)c(Cl)c2)[nH][nH]1`: the growth inhibition in test [2] was 1.79% (inactive).

With `COc1ccc(/C=C2/C(=O)N(c3ccccc3)N=C2C)cc1OC`, the growth inhibition in test [2] was 3.28% (inactive).

Take `CC(=O)n1cc(N(C(=O)CCl)c2ccc(C)cc2)c2ccccc21`: in test [1], the IC50 is 1.95 µM.

`Cc1sc2ncnc(Sc3nnnn3-c3ccccc3)c2c1C` showed an IC50 in test [1] of 40.5 µM.

On to `O=C(Cc1cc(=O)[nH][nH]1)N/N=C/c1c(Cl)cccc1Cl`, for which the growth inhibition in test [2] is 9.07% (inactive).

With `CN(C1=C(NC(=O)c2ccccc2)C(=O)c2ccccc2C1=O)C1CCS(=O)(=O)C1` (configuration not stated), the IC50 in test [1] is 88.6 µM.

As to `N#CC1=C(N)Oc2n[nH]c(-c3ccccc3)c2C1c1cccc(OC(=O)N2CCOCC2)c1` (configuration not stated), the growth inhibition in test [2] was -2.13% (inactive).

The compound `O=C(Cc1ccccc1)c1c[nH]c(C(=O)C(Cl)(Cl)Cl)c1` registered a half-maximal inhibitory concentration (IC50) in test [1] of 93.8 µM.

On to `O=C(N/N=C/c1c(O)n(C2CCCCC2)c(=S)[nH]c1=O)c1ccccc1O`, for which, in test [1], the IC50 is more than 100 µM.

As to `O=C(Cc1cc(=O)[nH][nH]1)N/N=C/c1ccccc1Cl`, in test [2], the growth inhibition is 2.61% (inactive).

As to `CC(/C=N/NC(=O)Cc1cc(=O)[nH][nH]1)=C\c1ccccc1`, in test [2], the growth inhibition was 2.34% (inactive).

For `Cc1ccccc1-c1nc(CN(C)C(C)c2ccon2)c(C)o1` (configuration not stated), the growth inhibition in test [2] is 4.51% (inactive).

In test [1], `Cc1nn(-c2ccccc2)c(Cl)c1CN(C(=O)CCl)c1ccc(Cl)cc1` showed a concentration for half-maximal inhibition (IC50) of 1.53 µM.

Consider `O=C(Cc1cc(=O)[nH][nH]1)N/N=C/C(Cl)=C/c1ccccc1`, for which the growth inhibition in test [2] was 6.66% (inactive).

Broadly, the IC50 is the point on the concentration scale where inhibition reaches its midpoint. High values mean lower potency, low ones higher potency. Broadly, the IC90 is the concentration needed for an effect of 90%.
